Where two headings read alike, the source gives them in different places. Marks after values point to notes of the source that are not given here.
Tests used:
cells of mouse spleen = assay: cells; assay type: cell-based, C3H/HeJ mouse; conditions: Mus musculus, 24 h, read-out: Minimum effective concentration (interferon inducing activity)
plasma esterase = conditions: rat plasma, 37° C., 15 minutes
Procedure: The compound of the present invention is added to the serum solution, and the mixture is incubated at 37±0.5° C. for 5 minutes to 2 hours. By quantitatively analyzing at the definite interval the amount of the compound of the present invention remaining in the serum solution with HPLC (high performance liquid chromatography), etc., the constant of quenching velocity calculated and the half life is calculated.
The serum herein means the supernatant fraction obtained by excluding hemocytes and blood coagulation factor from blood by centrifugation, etc. The serum diluted with buffer, etc. can be used.
The metabolic stability of the test compound was presented by the residual amount (%) per the concentration of pre-metabolization.

cells of rat spleen = assay: cells; assay type: cell-based, SD rat; conditions: for minimal effective concentration: 24 h, read-out: Minimum effective concentration (interferon inducing activity)
[1] = Metabolic stability on liver S9 of rat; conditions: 37° C.
Procedure: The compound of the present invention is added to liver S9 solution, and the mixture is incubated at 37±0.5° C. for 5 minutes to 2 hours. By quantitatively analyzing at the definite interval the amount of the compound of the present invention remaining in the liver S9 solution with HPLC (high performance liquid chromatography), etc., the constant of quenching velocity is calculated and the half life is calculated.
The reaction on river S9 of a rat was carried out on a 96-well plate by using a robot for screening by Tecan Company. S9 solution was prepared by adding to 10 ml of liver S9 of a rat, 20 ml of 250 mM Kpi (pH 7.4) and 20 ml of deionized water. Cofactor solution was prepared by dissolving NADPH (220 mg) in deionized water (40.5 ml) to give finally a 6 mM solution. IS (Internal Standard) solution was prepared by adding 300 μL of IS solution (1 mM DMSO solution) to 30 ml of acetonitrile solution (100 times dilution). The test compound (1 μM DMSO solution) was dissolved in an incubator at 37° C., 35 μL of it was poured into each well of a 96-well plate (24 samples/plate and then, plates (a sample plate, a 96 well-plate for dilution, deep well plates for reaction and recovering, a plate for extraction of the solid phase) and the test samples (S9 solution, Cofactor solution, IS (Internal Standard) solution, Stop solution, acetonitrile for elution) were set to the specified position in the booth of the robot. The reaction started (the concentration of the test compound was 1 μM) and the mixture was incubated at 37° C. under stirring. The solid phase was extracted and at the same time the internal standard for analysis was added. To the recovered sample (200 μL/well) was added 50 μL of acetonitrile per each well and to 2 plates of FALCON Deep well were poured 100 μL of the solution per well. By subjecting to the LC/MS analysis, the chromatogram of the test sample and the internal standard were described and the peak area was calculated. And then, the stability (residual rate after reaction) was calculated by the internal standard method.

[2] = rat liver S9, test compound 1 μM
[3] = rat liver S9, test compound 10 μM (*)

Compound	Residual rate (plasma esterase; test compound 10 μM)	minimal effective concentration (cells of rat spleen)	Residual rate [1, 2]	Residual rate (plasma esterase; test compound 1 μM (*))	further results
Cc1ccc(Cn2c(O)nc3c(N)nc(NCCO)nc32)cn1 [Comparative example 10, 8-Hydroxy-2-(2-hydroxyethylamino)-9-{(6-methyl-3-pyridyl)methyl}adenine, reference compound]	–	–	–	–	minimal effective concentration (cells of mouse spleen): 1 µM
CCCCOc1nc(N)c2nc(O)n(Cc3cccc(C(=O)OCC)c3)c2n1 [Example 2, 2-Butoxy-8-hydroxy-9-(3-ethoxycarbonylbenzyl)adenine]	5%	0.001 µM	11%	–	–
CCCCOc1nc(N)c2nc(O)n(Cc3cccc(C(=O)OC(C)C)c3)c2n1 [Example 3, 2-Butoxy-8-hydroxy-9-(3-isopropoxycarbonylbenzyl)adenine]	20%	–	19%	–	–
CCCCOc1nc(N)c2nc(O)n(Cc3cccc(C(=O)OCC(F)(F)F)c3)c2n1 [Example 4, 2-Butoxy-8-hydroxy-9-{3-(2,2,2-trifluorroethoxycarbonyl)benzyl}adenine]	23%	–	25%	–	–
CCCCOc1nc(N)c2nc(O)n(Cc3cccc(C(=O)OCCOCc4ccccc4)c3)c2n1 [Example 5, 2-Butoxy-8-hydroxy-9-{3-(2-benzyloxyethoxycarbonyl)benzyl}adenine]	18%	–	–	–	–
CCCCOc1nc(N)c2nc(O)n(Cc3cccc(C(=O)OCCN4CCOCC4)c3)c2n1 [Example 8, 2-Butoxy-8-hydroxy-9-{3-(2-morpholinoethoxycarbonyl)benzyl}adenine]	16%	–	1%	–	–
CCCCOc1nc(N)c2nc(O)n(Cc3cccc(C(=O)OCc4cccnc4)c3)c2n1 [Example 9, 2-Butoxy-8-hydroxy-9-{3-(3-pyridylmethoxycarbonyl)benzyl}adenine]	1%	–	–	–	–
CCCCOc1nc(N)c2[nH]c(=O)n(Cc3ccc(C(=O)OC)cc3)c2n1 [Example 11, 2-Butoxy-8-hydroxy-9-(4-methoxycarbonylbenzyl)adenine]	13%	–	–	–	–
CCCCOc1nc(N)c2nc(O)n(Cc3ccc(C(=O)OC(C)C)cc3)c2n1 [Example 12, 2-Butoxy-8-hydroxy-9-(4-isopropoxycarbonylbenzyl)adenine]	29%	–	–	–	–
CCCCOc1nc(N)c2nc(O)n(Cc3ccc(C(=O)OCc4cccnc4)cc3)c2n1 [Example 13, 2-Butoxy-8-hydroxy-9-{4-(3-pyridylmethoxycarbonyl)benzyl}adenine]	10%	–	–	–	–
CCCCOc1nc(N)c2nc(O)n(Cc3ccc(C(=O)OC)nc3)c2n1 [Example 17, 2-Butoxy-8-hydroxy-9-{(6-methoxycarbonyl-3-pyridyl)methyl}adenine]	0%	0.001 µM	28%	–	–
CCCCOc1nc(N)c2nc(O)n(Cc3ccc(C(=O)OC(C)C)nc3)c2n1 [Example 18, 2-Butoxy-8-hydroxy-9-{(6-isopropoxycarbonyl-3-pyridyl)methyl}adenine]	0%	–	–	–	–
CCCCOc1nc(N)c2nc(O)n(Cc3ccc(OCC(=O)OC)cc3)c2n1 [Example 22, 2-Butoxy-8-hydroxy-9-(4-methoxycarbonylmethoxybenzyl)adenine]	0%	–	31%	–	–
CCCCNc1nc(N)c2nc(O)n(Cc3ccc(C(=O)OC)cc3)c2n1 [Example 27, 2-Butylamino-8-hydroxy-9-(4-methoxycarbonylbenzyl)adenine]	0%	–	–	–	–
COC(=O)CNc1nc(N)c2nc(O)n(Cc3ccccc3)c2n1 [Example 31, 9-Benzyl-8-hydroxy-2-methoxycarbonylmethylaminoadenine]	0%	–	3%	–	–
CCC(=O)OCCOc1nc(N)c2nc(O)n(Cc3ccc(C)nc3)c2n1 [Example 37, 8-Hydroxy-9-(6-methyl-3-pyridyl)methyl-2-{2-(propionyloxy)ethoxy}adenine]	0%	–	–	–	–
CCOC(=O)CSc1nc(N)c2nc(O)n(Cc3ccccc3)c2n1 [Example 41, 9-Benzyl-2-(ethoxycarbonylmethyl)thio-8-hydroxyadenine]	0%	–	–	–	Residual rate [1, 3]: 2* %
CCCCCCCCOC(=O)CSc1nc(N)c2nc(O)n(Cc3ccccc3)c2n1 [Example 42, 9-Benzyl-8-hydroxy-2-(octyloxycarbonylmethyl)thioadenine]	0%	–	3%	–	–
CC(C)(C)OC(=O)CSc1nc(N)c2nc(O)n(Cc3ccccc3)c2n1 [Example 43, 9-Benzyl-2-(t-butoxycarbonylmethyl)thio-8-hydroxyadenine]	0%	–	2%	–	–
C=CCOC(=O)CSc1nc(N)c2nc(O)n(Cc3ccccc3)c2n1 [Example 44, 2-(Allyloxycarbonylmethyl)thio-9-benzyl-8-hydroxyadenine]	0%	–	0%	–	–

Compound	Residual rate (plasma esterase; test compound 10 μM)	minimal effective concentration (cells of rat spleen)	Residual rate [1, 2]	Residual rate (plasma esterase; test compound 1 μM (*))	further results
Nc1nc(SCC(=O)OCc2ccccc2)nc2c1nc(O)n2Cc1ccccc1 [Example 45, 2-(Benzyloxycarbonylmethyl)thio-9-benzyl-8-hydroxyadenine]	0%	–	–	–	Residual rate [1, 3]: 8* %
Nc1nc(SCC(=O)OCCF)nc2c1nc(O)n2Cc1ccccc1 [Example 46, 9-Benzyl-2-(2-fluoroethoxycarbonylmetyl)thio-8-hydroxyadenine]	0%	–	0%	–	–
Nc1nc(SCC(=O)OCC(F)F)nc2c1nc(O)n2Cc1ccccc1 [Example 47, 9-Benzyl-2-(2,2-difluoroethoxycarbonylmetyl)thio-8-hydroxyadenine]	0%	–	0%	–	–
COCCOC(=O)CSc1nc(N)c2nc(O)n(Cc3ccccc3)c2n1 [Example 49, 9-Benzyl-8-hydroxy-2-(2-methoxyethoxycarbonylmethyl)thioadenine]	0%	–	0%	–	–
CCOC(=O)CCSc1nc(N)c2nc(O)n(Cc3ccccc3)c2n1 [Example 55, 9-Benzyl-2-(2-ethoxycarbonylethyl)thio-8-hydroxyadenine]	0%	–	–	–	Residual rate [1, 3]: 4* %
CCOC(=O)CCCSc1nc(N)c2nc(O)n(Cc3ccccc3)c2n1 [Example 56, 9-Benzyl-2-(3-ethoxycarbonylpropyl)thio-8-hydroxyadenine]	0%	–	1%	–	–
COC(=O)CCc1nc(N)c2nc(O)n(Cc3ccccc3)c2n1 [Example 61, 9-Benzyl-8-hydroxy-2-(2-methoxycarbonylethyl)adenine]	–	0.003 µM	0%	0* %	–
CCOC(=O)CCc1nc(N)c2nc(O)n(Cc3ccccc3)c2n1 [Example 62, 9-Benzyl-2-ethoxycarbonylethyl-8-hydroxy adenine]	–	–	–	0* %	Minimum effective concentration (interferon inducing activity) (cells of rat spleen): 30 nM
COC(=O)COc1nc(N)c2nc(O)n(Cc3ccccc3)c2n1 [Example 64, 9-Benzyl-8-hydroxy-2-methoxycarbonylmethoxyadenine]	–	0.003 µM	2%	0* %	–
CCOC(=O)COc1nc(N)c2nc(O)n(Cc3ccccc3)c2n1 [Example 65, 9-Benzyl-2-ethoxycarbonylmethoxy-8-hydroxyadenine]	–	0.03 µM	–	0* %	–
CCCCOc1nc(N)c2nc(O)n(Cc3ccc(CC(=O)OCC)cc3)c2n1 [Example 68, 2-Butoxy-8-hydroxy-9-(4-ethoxycarbonylmethylbenzyl)adenine]	–	0.0003 µM	13%	0* %	–
CCCCOc1nc(N)c2nc(O)n(Cc3cccc(CC(=O)OCCF)c3)c2n1 [Example 70, 2-Butoxy-8-hydroxy-9-{3-(2-fluoroethoxycarbonyl)methylbenzyl}adenine]	–	0.001 µM	16%	0* %	–
CCCCOc1nc(N)c2nc(O)n(Cc3ccc(CC(=O)OCCO)cc3)c2n1 [Example 71, 2-Butoxy-8-hydroxy-9-{4-(2-hydroxyethoxycarbonyl)methylbenzyl}adenine]	–	0.0003 µM	0%	0* %	–
CCCCOc1nc(N)c2nc(O)n(Cc3ccc(CC(=O)OCCN4CCOCC4)cc3)c2n1 [Example 73, 2-Butoxy-8-hydroxy-9-{4-(2-morpholinoethoxycarbonyl)methylbenzyl}adenine]	–	0.0003 µM	0%	4* %	–
CCCCOc1nc(N)c2nc(O)n(Cc3ccc(CC(=O)SC)cc3)c2n1 [Example 74, 2-Butoxy-8-hydroxy-9-{4-(S-methylthiocarbonyl)methylbenzyl}adenine]	–	0.001 µM	7%	0* %	–
CCCCOc1nc(N)c2nc(O)n(Cc3ccc(CC(=O)SCC)cc3)c2n1 [Example 75, 2-Butoxy-9-{4-(S-ethylthiocarbonyl)methylbenzyl}-8-hydroxyadenine]	–	0.003 µM	–	0* %	–
CCCCOc1nc(N)c2[nH]c(=O)n(Cc3cccc(CC(=O)OCC)c3)c2n1 [Example 80, 2-Butoxy-9-(3-ethoxycarbonylmethylbenzyl)-8-hydroxyadenine]	–	0.001 µM	0%	0* %	–
COC(=O)c1cccc(CSc2nc(N)c3nc(O)n(Cc4ccccc4)c3n2)c1 [Example 103, 9-Benzyl-8-hydroxy-2-[(3-methoxycarbonylbenzyl)thio]adenine]	–	0.01 µM	7%	6* %	–
Nc1nc(CC(=O)OCCF)nc2c1nc(O)n2Cc1ccccc1 [Example 109, 9-Benzyl-2-(2-fluoroethoxycarbonyl)methyl-8-hydroxyadenine]	–	0.03 µM	0%	–	–

Reference: US8148371B2, “Adenine compound and use thereof” (Dainippon Sumitomo Pharma Co., Ltd., priority 2002, dated 2012)
